These results are taken from paper PMC5384001 (Scientific Reports, 2017).

Assay [1] concerns the target T1, GluD2-Lc(Y543Q)-(HS2)GluN1 (Rattus norvegicus, UniProt Q63226, A654T/A766F/D767R/N763E/R768S/T764L/V761T/V765F/Y543Q).
T1 construct: the function of full-length receptors as well, we introduced them into the GluD2 lurcher mutant (GluD2-Lc); expressed in transfected cells; host or cells: Xenopus laevis oocytes injected with cRNA
T1 sequence (Q63226 24-1007 Y543Q/A654T/V761T/N763E/T764L/V765F/A766F/D767R/R768S): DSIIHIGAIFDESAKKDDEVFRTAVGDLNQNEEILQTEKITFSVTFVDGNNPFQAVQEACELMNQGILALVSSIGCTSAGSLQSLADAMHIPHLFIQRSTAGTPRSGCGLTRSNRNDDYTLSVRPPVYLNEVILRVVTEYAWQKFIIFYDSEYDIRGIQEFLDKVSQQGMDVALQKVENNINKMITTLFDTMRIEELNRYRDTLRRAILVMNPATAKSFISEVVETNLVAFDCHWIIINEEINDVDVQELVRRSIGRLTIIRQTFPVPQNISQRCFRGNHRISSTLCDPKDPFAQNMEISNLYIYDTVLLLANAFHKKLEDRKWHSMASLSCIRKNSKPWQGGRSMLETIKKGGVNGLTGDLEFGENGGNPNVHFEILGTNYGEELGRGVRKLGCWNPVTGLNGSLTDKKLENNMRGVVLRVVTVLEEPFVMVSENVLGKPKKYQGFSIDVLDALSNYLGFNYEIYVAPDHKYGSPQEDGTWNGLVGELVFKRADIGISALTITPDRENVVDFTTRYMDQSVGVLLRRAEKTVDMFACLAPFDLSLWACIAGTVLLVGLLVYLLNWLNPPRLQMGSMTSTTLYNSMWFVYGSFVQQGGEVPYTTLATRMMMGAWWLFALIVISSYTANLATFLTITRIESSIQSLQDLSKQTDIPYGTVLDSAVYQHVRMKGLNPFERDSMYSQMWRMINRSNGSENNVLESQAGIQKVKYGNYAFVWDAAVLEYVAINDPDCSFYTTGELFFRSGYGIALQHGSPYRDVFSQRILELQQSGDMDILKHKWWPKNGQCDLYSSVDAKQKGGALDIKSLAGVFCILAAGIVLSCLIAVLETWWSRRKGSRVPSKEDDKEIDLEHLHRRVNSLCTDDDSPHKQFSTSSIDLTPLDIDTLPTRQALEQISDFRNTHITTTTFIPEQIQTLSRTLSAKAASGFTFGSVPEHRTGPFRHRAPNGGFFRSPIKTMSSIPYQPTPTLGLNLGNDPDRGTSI
The assay can be described thus: Two-electrode voltage clamp in Xenopus oocytes, inhibition of spontaneous currents. Conditions: fraction of spontaneous current inhibited by saturating D-serine. It counts as cell-based. A general note: Two-electrode voltage clamp is typically applied to oocytes expressing channels or transporters.

The target in assay [2] is GluN1 LBD. The arrangement: method as in PMID 12805203. To be noted: cited from earlier work.
The test system of assay [3] is parallel fiber EPSCs. To be noted: inhibitory effect on parallel fiber EPSCs; read-out: apparent EC50; cited from earlier work.

Broadly, the Kd is the constant that tells how readily two partners part at equilibrium. As usually defined, the EC50 is the midpoint of the concentration-response curve. As for `N[C@H](CO)C(=O)O` [D-serine], the “D-serine efficacy Mean ± SEM” value in assay [1] worked out at 24.1 ± 0.4%. Further, the Kd in assay [2] is 7 µM. Besides, in assay [3], the EC50 was 147 µM.
